Assay results as given in US9980986B2, “Methods of producing pancreatic hormones” (ViaCyte, Inc., priority 2006, dated 2018).

Assays:
[1] = tested on: activin receptor-like (ALK) receptor; experiment: TGF-beta receptor family inhibitor added to cell cultures at stage 2 of differentiation; assay type: cell-based, human; conditions: about 2.5, 5 and 10 μM added to the cell cultures at stage 2
Excerpt: The differentiation culture conditions were substantially similar to that described in d'Amour et al. 2006. d'Amour et al. 2006 describe a 5 step differentiation protocol: stage 1 (definitive endoderm; d 1-d 4), stage 2 (primitive gut tube or foregut endoderm; d 5 to d 8), stage 3 (posterior foregut or Pdx1 endoderm; d 9 to d 12), stage 4 (pancreatic endoderm, or pancreatic epithelium and endocrine precursor; d 13 to d 15) and stage 5 (hormone expressing endocrine cell, d 16 or more). As in d'Amour et al. 2006, the undifferentiated cells were cultured for one day (d 1) in RPMI containing 100 ng/ml Activin A (R&D Systems) and 25 ng/ml recombinant human WNT3a (R&D Systems), two days (d 2 and d 3) in RPMI medium containing 0.2% fetal bovine serum (FBS, Specialty Media) and 100 ng/ml Activin A. The embodiments described herein were slightly modified beginning at day 3 (d 3). The cells from day 3 (definitive endoderm) were cultured for three days (d 4 to d 6; foregut endoderm) in RPMI medium containing 2% FBS, 50 ng/ml recombinant human KGF/FGF7 (R&D Systems), and 0.25 μM KAAD-cyclopamine (Toronto Research Chemicals). Activin is removed from cells at this stage. […]

[2] = tested on: Human embryonic stem cell lines; experiment: hESC differentiation by 6-step 15-day protocol with or without Wnt3a in step 1, real-time quantitative PCR; assay type: cell-based; conditions: Wnt3a 25 ng/mL added during the first step
Procedure: Human embryonic stem cell lines were also differentiated for 15 days via a 6-step protocol to achieve islet hormone-expressing cells. The first step comprised 3 days differentiation with either; i) activin A (100 ng/ml) or ii) activin A (100 ng/ml) and Wnt3a (25 ng/mL) to robustly produce DE (D'Amour, K., et al., Nature Biotechnology 23, 1534-1541, (2005)). Step 2 comprised 3 days differentiation in RPMI with 2% FBS containing FGF10 (50 ng/mL) and KAAD-cyclopamine (0.5 μM). Step 3 comprised 2 days differentiation in CMRL with B27 supplement (1:100) containing FGF10 (50 ng/mL), KAAD-cyclopamine (0.5 μM) and retinoic acid (2 μM). Step 4 comprised 2 days differentiation in CMRL with B27 supplement (1:100) containing retinoic acid (2 μM) and DAPT (1 μM). Step 5 comprised 2 days differentiation in CMRL with B27 supplement (1:100) containing DAPT (1 μM) and exendin 4 (40 ng/mL). Step 6 comprised 3 days differentiation in CMRL with B27 supplement (1:100) containing exendin 4 (40 ng/mL). Duplicate samples were taken from each plate at multiple time points and gene expression was analyzed by real-time quantitative PCR.

Row | Molecule | Effect on cell differentiation [1] | Effect on endocrine cell differentiation [2]
1 | NC(=O)c1ccc(-c2nc(-c3ccc4c(c3)OCO4)c(-c3ccccn3)[nH]2)cc1 [SB-431542] | potentiated cell differentiation | 
2 | Wnt3a: wingless-type MMTV integration site family member 3A (protein, UniProt P56704 19-352, looked up) Protein Wnt-3a: SYPIWWSLAVGPQYSSLGSQPILCASIPGLVPKQLRFCRNYVEIMPSVAEGIKIGIQECQHQFRGRRWNCTTVHDSLAIFGPVLDKATRESAFVHAIASAGVAFAVTRSCAEGTAAICGCSSRHQGSPGKGWKWGGCSEDIEFGGMVSREFADARENRPDARSAMNRHNNEAGRQAIASHMHLKCKCHGLSGSCEVKTCWWSQPDFRAIGDFLKDKYDSASEMVVEKHRESRGWVETLRPRYTYFKVPTERDLVYYEASPNFCEPNPETGSFGTRDRTCNVSSHGIDGCDLLCCGRGHNARAERRREKCRCVFHWCCYVSCQECTRVYDVHTCK |  | marked enhancement of endocrine cell differentiation
